# Experimental data: US12370263B2, “Cyclic dinucleotide derivative based antibody-drug conjugates” (DAIICHI SANKYO COMPANY, LIMITED, priority 2018, dated 2025)
# Experiments:
# [1] = molecular target: T1, HisAviTEV-hSTING (139-342) human wild-type protein (Homo sapiens, UniProt Q86WV6, H232R); assay: Protein thermal shift assay, STING C-terminal binding domain protein; conditions: test compound final concentration 0.5 mM
# T1 construct: made in house; host or cells: E. coli Rosetta 2 (DE3), co-expressed with BirA (1-321)
# [2] = molecular target: T2, HisAviTEV-hSTING (139-342) human REF-mutated protein (Homo sapiens, UniProt Q86WV6); assay: as above; conditions: test compound final concentration 0.5 mM
# T2 construct: made in house; host or cells: E. coli Rosetta 2 (DE3), co-expressed with BirA (1-321)
# [3] = molecular target: T3, HisAviTEV-hSTING (139-342) human AQ-mutated protein (Homo sapiens, UniProt Q86WV6, G230A/H232R/R293Q); assay: as above; conditions: test compound final concentration 0.5 mM
# T3 construct: made in house; host or cells: E. coli Rosetta 2 (DE3), co-expressed with BirA (1-321)
# [4] = molecular target: T4, His-Avi-TEV-mSTING (138-341) mouse wild-type protein (Mus musculus, UniProt Q3TBT3); assay: as above; conditions: test compound final concentration 0.5 mM
# T4 construct: made in house; host or cells: E. coli Rosetta 2 (DE3), co-expressed with BirA (1-321)
# Description: Each of these expression strains was added to a TB medium containing 100 μg/mL ampicillin, 50 μg/mL streptomycin, and 30 μg/mL kanamycin, cultured at 37° C., then exposed to 100 μM IPTG for inducible expression, and further cultured at 16° C.
# The culture solution was centrifuged, and the resulting bacterial cells were suspended in 50 mM HEPES pH 8.0, 500 mM NaCl, 20 mM imidazole, 1 mM DTT, 5% (w/v) glycerol, Complete EDTA free, and then subjected to freeze-thawing. After addition of Lysozyme and DNase I, proteins were extracted by ultrasonic disintegration, and centrifugation was performed and the resulting supernatant was collected. The supernatant obtained was purified by using an AKTA express chromatography system (GE Healthcare, IL, US) with a HisTrap FF column (GE Healthcare), and eluted with buffer (20 mM HEPES pH 7.5, 120 mM NaCl, 20% Glycerol, 0.8 mM DTT) through a Superdex 200 16/60 column (GE Healthcare). […] The protein concentrations were measured by using a NanoDrop2000 (Thermo Fisher Scientific, MA, US), and the proteins were cryopreserved at −80° C. until use.
# The binding ability of each compound to the STING C-terminal binding domain proteins was evaluated by protein thermal shift assay, which uses the elevation of thermal denaturation temperature of protein as an index.
# Specifically, 3 μL of a test compound (final concentration: 0.5 mM), 3 μL of SYPRO Orange Protein Gel Stain (Thermo Fisher Scientific) (final concentration: 20-fold), and 6 μL of a STING protein were mixed with use of assay buffer (20 mM Tris-HCl pH 7.5, 120 mM NaCl) in a 384-well real-time PCR plate, and mixed together with a plate shaker. With a real-time PCR system (Thermo Fisher Scientific), the temperature was increased from 25° C. to 95° C. at a rate of 0.03° C./sec, and the thermal denaturation temperature of the protein was measured by using fluorescence emitted from SYPRO Orange as an index. From the measurement acquired, Tm (the midpoint of the unfolding transition) (° C.) was determined as a temperature at which the increase rate of fluorescence intensity was maximized by using the analysis software Protein Thermal Shift software (Thermo Fisher Scientific). The Tm value for a well with no compound was subtracted from the Tm value for each test compound to calculate the Tm shift caused by the compound as ΔTm (° C.).
# Human STING = Human STING (Homo sapiens, UniProt Q86WV6, G230A/H232R/R293Q/R71H); assay: Reporter gene assay, human STING agonist activity, THP1-Dual cells (HAQ-mutated), IRF pathway; conditions: THP1-Dual cells IRF EC50, THP1-Dual cells (HAQ-mutated), 24 hours; 100% = maximum count with ML-RR-CDA·2Na+
# CT26.WT cells = assay: Anti-Tumor Test (1), intratumoral administration; format: in vivo, BALB/c mouse; conditions: 10 μg intratumorally on Day 7, 9, and 11; CT26.WT in BALB/c mice; FIGS. 7a and 7b
# Description: Mice: Before use for experiment, 5-week-old female BALB/c mice (BALB/cAnNCrlCrlj) (Charles River Laboratories Japan, Inc.) were habituated under SPF conditions for 4 days or longer.
# Measurement, calculation formula: In all the studies, the major axis and minor axis of a tumor were measured twice or three times per week by using an electronic digital caliper (CD15-CX, Mitutoyo Corporation) to calculate tumor volume (mm^3). The calculation formula is as follows. Tumor volume (mm^3)=0.5×Major axis (mm)×[Minor axis (mm)]^2
# Each test compound was diluted with physiological saline (Otsuka Pharmaceutical Factory, Inc.) for use. In administration of it, 50 μL was intratumorally administered.
# Cells of the mouse colorectal cancer cell line CT26.WT (CRL2638) purchased from the American Type Culture Collection were used. CT26.WT cells were suspended in physiological saline, 1.0×10^6 cells were subcutaneously transplanted into the right axilla of each BALB/c mouse (Day 0), and 7 days thereafter the mice were randomly grouped. Each test compound in a dose of 10 μg was intratumorally administered on Day 7, 9, and 11, three times in total. A group with administration of physiological saline was set as a group with a vehicle. The number of mice in each group was five or six.
# Human STING, sequence (Q86WV6 whole entry R71H/G230A/H232R/R293Q): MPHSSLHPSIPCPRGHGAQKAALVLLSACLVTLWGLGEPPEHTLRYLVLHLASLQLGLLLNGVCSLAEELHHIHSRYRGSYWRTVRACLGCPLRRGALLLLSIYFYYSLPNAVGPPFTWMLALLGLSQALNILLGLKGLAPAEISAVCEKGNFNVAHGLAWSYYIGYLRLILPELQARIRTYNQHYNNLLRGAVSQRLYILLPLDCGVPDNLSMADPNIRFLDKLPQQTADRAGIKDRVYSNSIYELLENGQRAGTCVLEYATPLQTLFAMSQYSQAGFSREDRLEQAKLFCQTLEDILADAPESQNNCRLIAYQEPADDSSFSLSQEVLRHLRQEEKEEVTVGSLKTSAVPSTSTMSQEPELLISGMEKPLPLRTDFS
# T3 sequence (Q86WV6 with tags, fused parts or gaps G230A/H232R/R293Q): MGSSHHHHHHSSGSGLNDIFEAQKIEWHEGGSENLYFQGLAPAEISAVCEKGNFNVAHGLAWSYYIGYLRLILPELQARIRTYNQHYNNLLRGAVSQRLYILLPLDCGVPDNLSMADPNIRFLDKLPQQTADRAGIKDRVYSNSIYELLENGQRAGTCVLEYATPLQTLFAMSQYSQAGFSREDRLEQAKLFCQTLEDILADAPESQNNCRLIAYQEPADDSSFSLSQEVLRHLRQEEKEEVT
# T2 sequence (Q86WV6 with tags, fused parts or gaps, change not shown): as the sequence (Q86WV6 with tags, fused parts or gaps G230A/H232R/R293Q) above, with A131G, R133H, Q194R counted along it
# T1 sequence (Q86WV6 with tags, fused parts or gaps H232R): as the sequence (Q86WV6 with tags, fused parts or gaps G230A/H232R/R293Q) above, with A131G, Q194R counted along it
# T4 sequence (Q3TBT3 with tags, fused parts or gaps limits assumed): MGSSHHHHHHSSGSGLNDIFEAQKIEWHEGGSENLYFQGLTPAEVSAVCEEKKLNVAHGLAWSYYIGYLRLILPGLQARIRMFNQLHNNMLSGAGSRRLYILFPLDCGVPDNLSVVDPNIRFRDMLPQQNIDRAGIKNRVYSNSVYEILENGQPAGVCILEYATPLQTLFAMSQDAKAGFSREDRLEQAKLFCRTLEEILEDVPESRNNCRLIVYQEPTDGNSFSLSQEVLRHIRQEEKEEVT
Compound,ΔTm Hu-WT [1],ΔTm Hu-REF [2],ΔTm Hu-AQ [3],ΔTm Ms-WT [4],EC50 (Human STING),ΔTm at 500 µM [1],ΔTm at 500 µM [2],ΔTm at 500 µM [3],ΔTm at 500 µM [4],tumor growth (tumor volume) (CT26.WT cells)
"O=C(CO)NCCn1cnc2c(ncn2[C@@H]2O[C@@H]3COP(=O)(S)O[C@H]4[C@@H](O)[C@H](n5cc6c7c(ncnc75)NCCC6)O[C@@H]4COP(=O)(S)O[C@@H]2[C@@H]3O)c1=O (single isomer, unassigned) [7a]",–,–,–,–,3500 nM,8 °C,3.9 °C,9.7 °C,11.5 °C,–
"O=P1(S)OC[C@H]2O[C@@H](n3cc4c5c(ncnc53)NCCC4)[C@H](O)[C@@H]2OP(=O)(S)OC[C@H]2O[C@@H](n3cnc4c(CO)ncnc43)[C@H](O1)[C@@H]2O (single isomer, unassigned) [17a]",–,–,–,–,4400 nM,7.3 °C,2.7 °C,10.7 °C,12.6 °C,–
"NCCNc1nc(N)c2ncn([C@@H]3O[C@@H]4COP(=O)(S)O[C@H]5[C@@H](F)[C@H](n6cc7c8c(ncnc86)NCCC7)O[C@@H]5COP(=O)(S)O[C@@H]3[C@@H]4F)c2n1 (single isomer, unassigned) [45b]",7.5 °C,3.1 °C,9.1 °C,12.1 °C,3100 nM,–,–,–,–,–
"Nc1nc(NCCO)nc2c1ncn2[C@@H]1O[C@@H]2COP(=O)(S)O[C@H]3[C@@H](O)[C@H](n4cc5c6c(ncnc64)NCCC5)O[C@@H]3COP(=O)(S)O[C@@H]1[C@@H]2O (single isomer, unassigned) [9b]",–,–,–,–,2400 nM,–,–,–,–,significantly suppressed
"Nc1nc2c(ncn2[C@@H]2O[C@@H]3COP(=O)(S)O[C@H]4[C@@H](O)[C@H](n5cc6c7c(ncnc75)NCCC6)O[C@@H]4COP(=O)(S)O[C@@H]2[C@@H]3O)c(=O)[nH]1 (single isomer, unassigned) [4a]",–,–,–,–,2100 nM,11.5 °C,5.2 °C,17 °C,17.5 °C,–
"NCCn1cnc2c(ncn2[C@@H]2O[C@@H]3COP(=O)(S)O[C@H]4[C@@H](F)[C@H](n5cc6c7c(ncnc75)NCCC6)O[C@@H]4COP(=O)(S)O[C@@H]2[C@@H]3O)c1=O (single isomer, unassigned) [35a]",–,–,–,–,2000 nM,11 °C,6.6 °C,13.1 °C,13.5 °C,–
"O=C(CO)NCCn1cnc2c(ncn2[C@@H]2O[C@@H]3COP(=O)(S)O[C@H]4[C@@H](F)[C@H](n5cc6c7c(ncnc75)NCCC6)O[C@@H]4COP(=O)(S)O[C@@H]2[C@@H]3O)c1=O (single isomer, unassigned) [36a]",–,–,–,–,2000 nM,10.8 °C,5.8 °C,13.3 °C,15.4 °C,–
"O=c1c2ncn([C@@H]3O[C@@H]4COP(=O)(O)O[C@H]5[C@@H](F)[C@H](n6cc7c8c(ncnc86)NCCC7)O[C@@H]5COP(=O)(O)O[C@@H]3[C@@H]4O)c2ncn1CCO [compound 54, Disodium (5R,7R,8R,12aR,14R,15R,15aR,16R)-15-fluoro-16-hydroxy-7-[1-(2-hydroxyethyl)-6-oxo-1,6-dihydro-9H-purin-9-yl]-2,10-dioxo-14-(6,7,8,9-tetrahydro-2H-2,3,5,6-tetraazabenzo[cd]azulen-2-yl)octahydro-2H,10H,12H-5,8-methano-2λ^5,10λ^5-furo[3,2-1][1,3,6,9,11,2,10]pentaoxadiphosphacyclotetradecine-2,10-bis(olate)]",–,–,–,–,4000 nM,8.3 °C,3.4 °C,9.8 °C,12.1 °C,–
"NCCNc1nc(N)c2ncn([C@@H]3O[C@@H]4COP(=O)(S)O[C@H]5[C@@H](F)[C@H](n6cc7c8c(ncnc86)NCCC7)O[C@@H]5COP(=O)(S)O[C@@H]3[C@@H]4F)c2n1 (single isomer, unassigned) [45a]",–,–,–,–,1200 nM,8.9 °C,4.4 °C,10.8 °C,12.3 °C,–
"NCCn1cnc2c(ncn2[C@@H]2O[C@@H]3COP(=O)(S)O[C@H]4[C@@H](F)[C@H](n5cc6c7c(ncnc75)SCCC6)O[C@@H]4COP(=O)(S)O[C@@H]2[C@@H]3O)c1=O (single isomer, unassigned) [49b]",–,–,–,–,410 nM,12.6 °C,6.6 °C,16.1 °C,19.3 °C,–

# Further compounds by falling EC50 (Human STING), results first:
ΔTm Hu-WT [1],ΔTm Hu-REF [2],ΔTm Hu-AQ [3],ΔTm Ms-WT [4],EC50 (Human STING),ΔTm at 500 µM [1],ΔTm at 500 µM [2],ΔTm at 500 µM [3],ΔTm at 500 µM [4],Compound,tumor growth (tumor volume) (CT26.WT cells)
–,–,–,–,5900 nM,8.4 °C,3.4 °C,12 °C,14.3 °C,"Nc1ncnc2c1ncn2[C@@H]1O[C@@H]2COP(=O)(S)O[C@H]3[C@@H](O)[C@H](n4cc5c6c(ncnc64)NCCC5)O[C@@H]3COP(=O)(S)O[C@@H]1[C@@H]2O (single isomer, unassigned) [1a]",–
5.3 °C,1.4 °C,7.4 °C,10.6 °C,4700 nM,–,–,–,–,"NCCNc1nc(N)c2ncn([C@@H]3O[C@@H]4COP(=O)(S)O[C@H]5[C@@H](O)[C@H](n6cc7c8c(ncnc86)NCCC7)O[C@@H]5COP(=O)(S)O[C@@H]3[C@@H]4F)c2n1 (single isomer, unassigned) [42b]",–
–,–,–,–,2600 nM,9.7 °C,4.2 °C,12.2 °C,15.6 °C,"Nc1ncnc2c1ncn2[C@@H]1O[C@@H]2COP(=O)(S)O[C@H]3[C@@H](O)[C@H](n4cc5c6c(ncnc64)SCCC5)O[C@@H]3COP(=O)(S)O[C@@H]1[C@@H]2O (single isomer, unassigned) [23a]",–
–,–,–,–,1300 nM,11.4 °C,6.2 °C,15 °C,16 °C,"O=c1[nH]cnc2c1ncn2[C@@H]1O[C@@H]2COP(=O)(S)O[C@H]3[C@@H](O)[C@H](n4cc5c6c(ncnc64)NCCC5)O[C@@H]3COP(=O)(S)O[C@@H]1[C@@H]2O (single isomer, unassigned) [25a]",–
–,–,–,–,340 nM,12.3 °C,6.5 °C,15.6 °C,13 °C,"O=C(CO)NCCn1cnc2c(ncn2[C@@H]2O[C@@H]3COP(=O)(S)O[C@H]4[C@@H](F)[C@H](n5cc6c7c(ncnc75)SCCC6)O[C@@H]4COP(=O)(S)O[C@@H]2[C@@H]3O)c1=O (single isomer, unassigned) [50a]",–
–,–,–,–,190 nM,10.4 °C,5.7 °C,12.9 °C,15 °C,"O=c1c2ncn([C@@H]3O[C@@H]4COP(=O)(S)O[C@H]5[C@@H](O)[C@H](n6cc7c8c(ncnc86)NCCC7)O[C@@H]5COP(=O)(S)O[C@@H]3[C@@H]4F)c2ncn1CCO (single isomer, unassigned) [39a]",–
